ChEMBL document CHEMBL5518237, “Design of Novel 2-Phenylquinazolin-4-amines as Selective CYP1B1 Inhibitors for Overcoming Paclitaxel Resistance in A549 Cells” (J Med Chem, 2024)
pIC50: −log10 of the molar value.

Tests used:
[1] = Drug uptake in Kunming mouse lungs assessed as radioactive accumulation treated with radiolabeled compound at 0.37 MBq, iv measured after 120 mins by gamma-counting analysis; type: ADME, organism-based, Lung; details: in vivo, 2 h
[2] = Selectivity ratio of IC50 for Inhibition of human recombinant CYP1A2 to IC50 for Inhibition of human recombinant CYP1B1; type: ADME; details: recombinant enzyme
[3] = Drug uptake in human HCT-116 cells using radiolabeled compound at 0.037 MBq incubated for 120 mins by gamma-counting analysis; type: ADME, cell-based; details: hct-116, 2 h
[4] = Drug uptake in Kunming mouse thyroid assessed as radioactive accumulation treated with radiolabeled compound at 0.37 MBq, iv measured after 120 mins by gamma-counting analysis; type: ADME, organism-based, Thyroid gland; details: in vivo, 2 h
[5] = Drug uptake in intestine of mouse xenografted with human HCT-116 cells assessed as radioactive accumulation treated with radiolabeled compound at 0.37 MBq, iv measured after 240 mins by gamma-counting analysis; type: ADME, organism-based; details: in vivo, 4 h
[6] = Drug uptake in human HEK293T cells using radiolabeled compound at 0.037 MBq incubated for 120 mins by gamma-counting analysis; type: ADME, cell-based; details: hek-293t, 2 h
[7] = Drug uptake in liver of mouse xenografted with human HCT-116 cells assessed as radioactive accumulation treated with radiolabeled compound at 0.37 MBq, iv measured after 240 mins by gamma-counting analysis; type: ADME, organism-based; details: in vivo, 4 h
[8] = Drug uptake in human A549 cells using radiolabeled compound at 0.037 MBq incubated for 120 mins by gamma-counting analysis; type: ADME, cell-based; details: a549, 2 h
[9] = n-Octanol/PBS partition coefficient, log D of the radiolabeled compound at 0.37 MBq at pH 7.4 by gamma-counting analysis; type: physicochemical; details: octanol/water
[10] = Drug uptake in HCT-116 cells bearing mouse assessed as ratio of radioactive accumulation in tumor to muscle treated with radiolabeled compound at 0.37 MBq, iv measured after 30 mins by gamma-counting analysis; type: ADME, organism-based; details: in vivo, 0.5 h
[11] = Drug metabolism in mouse xenografted with human HCT-116 cells assessed as deiodination treated with radiolabeled compound at 0.37 MBq, iv measured after 240 mins by gamma-counting analysis; type: ADME, organism-based; details: 4 h
[12] = Drug uptake in kidney of mouse xenografted with human HCT-116 cells assessed as radioactive accumulation treated with radiolabeled compound at 0.37 MBq, iv measured after 240 mins by gamma-counting analysis; type: ADME, organism-based; details: in vivo, 4 h
Cytochrome P450 1A2 = biological target: T1, Cytochrome P450 1A2 (Homo sapiens, UniProt P05177); test: Inhibition of human recombinant CYP1A2 using 7-ethoxyresorufin as substrate preincubated with enzyme for 5 mins followed by fluorescent substrate and NADPH addition and measured after 50 mins by EROD assay; type: ADME
T1 sequence (P05177 whole entry): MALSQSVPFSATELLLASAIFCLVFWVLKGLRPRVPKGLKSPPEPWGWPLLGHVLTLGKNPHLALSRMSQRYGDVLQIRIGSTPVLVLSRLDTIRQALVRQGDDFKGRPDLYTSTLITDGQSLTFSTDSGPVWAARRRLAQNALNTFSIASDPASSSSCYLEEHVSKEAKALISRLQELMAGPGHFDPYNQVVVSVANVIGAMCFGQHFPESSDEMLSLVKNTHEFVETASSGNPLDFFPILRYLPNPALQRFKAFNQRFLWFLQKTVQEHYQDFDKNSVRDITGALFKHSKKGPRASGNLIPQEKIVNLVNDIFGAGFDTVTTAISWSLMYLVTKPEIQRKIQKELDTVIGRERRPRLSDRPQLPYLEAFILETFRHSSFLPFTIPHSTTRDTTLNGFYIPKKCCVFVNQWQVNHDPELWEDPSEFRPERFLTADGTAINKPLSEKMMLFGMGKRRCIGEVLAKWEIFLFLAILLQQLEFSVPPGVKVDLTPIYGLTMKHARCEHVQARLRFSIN

[13] = Drug uptake in Kunming mouse intestine assessed as radioactive accumulation treated with radiolabeled compound at 0.37 MBq, iv measured after 120 mins by gamma-counting analysis; type: ADME, organism-based; details: in vivo, 2 h
[14] = Drug uptake in human HCT-116 cells using radiolabeled compound at 0.037 MBq incubated for 240 mins by gamma-counting analysis; type: ADME, cell-based; details: hct-116, 4 h
[15] = Drug metabolism in Kunming mouse assessed as deiodination treated with radiolabeled compound at 0.37 MBq, iv measured after 120 mins by gamma-counting analysis; type: ADME, organism-based; details: in vivo, 2 h
[16] = Drug uptake in HCT-116 cells bearing mouse assessed as ratio of radioactive accumulation in tumor to muscle treated with radiolabeled compound at 0.37 MBq, iv measured after 240 mins by gamma-counting analysis; type: ADME, organism-based; details: in vivo, 4 h
[17] = Drug uptake in Kunming mouse kidney assessed as radioactive accumulation treated with radiolabeled compound at 0.37 MBq, iv measured after 120 mins by gamma-counting analysis; type: ADME, organism-based; details: in vivo, 2 h
[18] = Selectivity ratio of IC50 for Inhibition of human recombinant CYP1A1 to IC50 for Inhibition of human recombinant CYP1B1; type: ADME; details: recombinant enzyme
Cytochrome P450 1A1 = biological target: T2, Cytochrome P450 1A1 (Homo sapiens, UniProt P04798); test: Inhibition of human recombinant CYP1A1 using 7-ethoxyresorufin as substrate preincubated with enzyme for 5 mins followed by fluorescent substrate and NADPH addition and measured after 15 mins by EROD assay; type: ADME
T2 sequence (P04798 whole entry): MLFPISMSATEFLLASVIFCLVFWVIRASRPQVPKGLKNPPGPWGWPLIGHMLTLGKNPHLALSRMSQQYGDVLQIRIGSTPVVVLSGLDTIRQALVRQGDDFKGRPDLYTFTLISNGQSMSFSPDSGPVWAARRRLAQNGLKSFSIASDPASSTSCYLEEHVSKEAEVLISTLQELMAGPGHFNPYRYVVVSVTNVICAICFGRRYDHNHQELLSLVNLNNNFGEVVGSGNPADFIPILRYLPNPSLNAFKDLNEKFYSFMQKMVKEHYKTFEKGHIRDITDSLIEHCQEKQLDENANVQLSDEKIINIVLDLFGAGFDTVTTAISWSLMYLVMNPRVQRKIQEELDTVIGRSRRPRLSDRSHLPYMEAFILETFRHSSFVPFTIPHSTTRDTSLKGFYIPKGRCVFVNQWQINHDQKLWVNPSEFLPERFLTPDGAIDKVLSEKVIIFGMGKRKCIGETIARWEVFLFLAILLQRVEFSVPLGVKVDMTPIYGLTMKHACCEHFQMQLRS

In the case of `Nc1nc(-c2ccc(I)cc2)nc2ccccc12`, the Drug uptake [1] was “Active”, the “Ratio IC50” value [2] was 6.23 10^4No_unit and the Drug uptake [3] was “Active”. For the same molecule, the Drug uptake [4] was “Active”, the Drug uptake [5] was “Active” and the Drug uptake [6] was “Active”. The Drug uptake [7] was “Active”, the Drug uptake [8] was “Active” and the logD [9] was 3.24. The Ratio [10] was 1.27, the Drug metabolism [11] was “Metabolite_Notdetected” and the Drug uptake [12] was “Active”. The pIC50 (Cytochrome P450 1A2) was 5.90, the Drug uptake [13] was “Active” and the Drug uptake [14] was 23.95%. The Drug metabolism [15] was “Metabolite_Notdetected”, the Ratio [16] was 1.84 and the Drug uptake [17] was “Active”. For the same molecule, the “Ratio IC50” value [18] was 287 and the pIC50 (Cytochrome P450 1A1) was 8.24.
